Experimental data published in patent publication US20160271178A1, “NANOPARTICLE-CONTAINING HYDROGELS” (priority 2013, published 2016).

Test system: P. aeruginosa
Assay: Bacterial suspension assay (OD measurement)
Assay type: cell-based
Conditions: tetracycline 10 and 20 μg/mL; 24 h
Description: Gels were prepared in 24-well sterile Nunc plates. 10 mM AgNO3 solution in 100 mM Tris-buffer (pH=8.5) was freshly prepared and used to dissolve the peptide to a final concentration of 10 mg/mL. The resultant solution was sonicated for 15-20 s to ensure complete dissolution of the peptide. 400 μL of the peptide solution was then aliquoted into each well and allowed to spread evenly on the surface. […] Prior to use, the plates were exposed to short-wavelength UV at 254 nm for 5 minutes to allow Ag NP formation. For the control gels, 100 mM Tris buffer without AgNO3 was used for Ac-LK6—NH2 hydrogel preparation.
50 μL of bacterial stock was inoculated overnight in 5 mL of Luria-Bertani (LB) medium (pH=7.5), with constant shaking at 300 rpm at 37° C. The log-phase bacterial solution was then diluted in LB medium to obtain an O.D. of 0.07 (at 600 nm). This was used as the starting bacterial solution (0 hr reading) and 400 μL of the solution was dispensed into each well of the 24-well plate containing the hydrogels. […] Ac-LK6—NH2 hydrogels without Ag NPs and bacteria-only solutions served as the negative controls. […] For the O.D. readings, 100 μL of the bacterial solution was transferred into a transparent 96 well Nunc plate just before measurement, to prevent the hydrogel layer from influencing absorbance measurements. […]

With `CN(C)[C@@H]1C(O)=C(C(N)=O)C(=O)[C@@]2(O)C(O)=C3C(=O)c4c(O)cccc4[C@@](C)(O)[C@H]3C[C@@H]12` [tetracycline, Tetracycline] the “growth inhibition compared to the untreated control” value was “about 50%”.
